Assay results as given in the PolyMetriX glass transition set.
± gives the standard deviation of the reports.

For `*Oc1c(OC)cc(*)cc1OC` (repeat unit), the glass transition temperature was 174.10 °C.
`*CC(*)(Cl)C(=O)OCCCCCCOc1ccc(C(=O)Oc2ccc(OCCCC)cc2)cc1` (repeat unit) showed a glass transition temperature of 112.50 °C.
With `*Oc1cc(OC(=O)c2ccc(OCCCC)cc2)c(OC(=O)C(C)(C)CCC(*)=O)cc1OC(=O)c1ccc(OCCCC)cc1` (repeat unit) the glass transition temperature was 61.00 °C.
In the case of `*CCCCCCCCCCOC(=O)c1ccc(C(=O)O*)cc1` (repeat unit), the glass transition temperature is reported as 10.50 °C.
Work on `*c1ccc(-c2ccc([Si](*)(CCCC)CCCC)s2)s1` (repeat unit) yielded a glass transition temperature of -10.00 °C.
With `*C(=O)c1ccc2c(c1)C(=O)N(c1ccc3c(c1)C(=O)c1cc(N4C(=O)c5ccc(*)cc5C4=O)ccc1-3)C2=O` (repeat unit) the glass transition temperature was 331.00 °C.
Compound `*Oc1ccc(P(C)(=O)c2ccc(Oc3ccc(P(=O)(c4ccccc4)c4ccc(*)cc4)cc3)cc2)cc1` (repeat unit) has a glass transition temperature of 238.00 °C.
`*C(=O)Nc1ccc(S(=O)(=O)c2ccc(N3C(=O)CC(N4C(=O)c5ccc(*)cc5C4=O)C3=O)cc2)cc1` (repeat unit) gave a glass transition temperature of 145.00 °C.
`*CC(C)(N=C=O)C1C(=O)OC(=O)C1*` (repeat unit) gave a glass transition temperature of 100.00 °C.
Work on `*c1ccc(Oc2ccc(C(=O)c3cccc(C(=O)c4ccc(Oc5ccc(N6C(=O)c7ccc([Si](C)(C)c8ccc9c(c8)C(=O)N(*)C9=O)cc7C6=O)cc5)cc4)c3)cc2)cc1` (repeat unit) yielded a glass transition temperature of 208.00 °C.
`*CC(*)OC(=O)CC` (repeat unit) [Poly(vinyl propionate) ] showed a glass transition temperature of 10 ± 2 °C.
With `*OC(=O)C(C)NC(=O)CCCCC(=O)NC(C)C(=O)OC1COC2C(*)COC12` (repeat unit) the glass transition temperature was 56.00 °C.
With `*OC(C)COC(=O)c1ccc(C(*)=O)cc1` (repeat unit) the glass transition temperature was 98.00 °C.
Compound `*O[Si](*)(C)CCCOc1ccc(C(=O)Oc2ccc(OC(=O)CCCCC(=O)OC3CC(C)CCC3C(C)C)cc2)cc1` (repeat unit) has a glass transition temperature of 45.30 °C.
`*CCOCCOC(=O)/C=C/C(=O)NCCCCCCNC(=O)/C=C/C(=O)O*` (repeat unit) gave a glass transition temperature of 76.00 °C.
In the case of `*Oc1ccc(CC(NC(=O)Cc2ccc(OC(=O)COCC(*)=O)cc2)C(=O)OCCCCCCCC)cc1` (repeat unit), the glass transition temperature is reported as 51.00 °C.
In the case of `*CC(*)(C)C(=O)Oc1ccc(C(=O)O)cc1` (repeat unit), the glass transition temperature is reported as 110.00 °C.
Work on `*C(=O)Nc1cccc(S(=O)(=O)c2cccc(NC(=O)c3ccc4c(c3)C(=O)N(c3cc(-c5nnc(-c6ccccn6)o5)cc(N5C(=O)c6ccc(*)cc6C5=O)c3)C4=O)c2)c1` (repeat unit) yielded a glass transition temperature of 173.00 °C.
For `*Nc1ccc(C(c2ccc(NC(=O)c3cc(NC(=O)CCCCCN4C(=O)c5ccccc5C4=O)cc(C(*)=O)c3)cc2)(C(F)(F)F)C(F)(F)F)cc1` (repeat unit), the glass transition temperature was 225.00 °C.
With `*CC(*)C(=O)OCCCOc1ccc(/N=N/c2ccc([N+](=O)[O-])cc2)cc1` (repeat unit) the glass transition temperature was 45.60 °C.
Work on `*Oc1cc(CCCC)cc(OC(=O)c2cccc(C(*)=O)c2)c1` (repeat unit) yielded a glass transition temperature of 97.50 °C.
With `*c1c(C)cc(-c2cc(C)c(-n3c(=O)c4cc5c(=O)n(*)c(=O)c5cc4c3=O)c(C)c2)cc1C` (repeat unit) the glass transition temperature was 340.00 °C.
`*c1ccc(Oc2ccc(-c3ccc(Oc4ccc(N5C(=O)c6cccc(Oc7ccc(C(C)(C)c8ccc(Oc9cccc%10c9C(=O)N(*)C%10=O)cc8)cc7)c6C5=O)cc4)cc3)cc2)cc1` (repeat unit) showed a glass transition temperature of 236.00 °C.
With `*c1ccc2c(c1)C(=O)N(c1cc(C(=O)O)cc(N3C(=O)c4ccc(C(*)(C(F)(F)F)C(F)(F)F)cc4C3=O)c1)C2=O` (repeat unit) the glass transition temperature was 366.50 °C.
Compound `*CCCCCCOC(=O)OCCCCCCOC(=O)OCCCCCCOc1ccc(-c2ccc(O*)cc2)cc1` (repeat unit) has a glass transition temperature of 16.60 °C.
Compound `*Oc1ccc(C(=O)OC(C)COC(C)COC(C)COC(=O)c2ccc(OC(=O)c3ccc(C(*)=O)cc3)cc2)cc1` (repeat unit) has a glass transition temperature of 36.00 °C.
Work on `*Nc1ccc(-c2ccc(NC(=O)c3cc(NC(=O)c4ccc(NC(=O)C(C)N5C(=O)c6ccccc6C5=O)cc4)cc(C(*)=O)c3)cc2)cc1` (repeat unit) yielded a glass transition temperature of 202.00 °C.
For `*Oc1ccc(C(C)(C)c2ccc(OC(=O)c3ccccc3-c3ccccc3C(*)=O)cc2)cc1` (repeat unit), the glass transition temperature was 161.00 °C.
Work on `*CC(CC(*)(C#N)C#N)c1ccc(CCl)cc1` (repeat unit) yielded a glass transition temperature of 180.00 °C.
For `*C(=O)c1cc2c(cc1Cl)C(=O)N(c1cc(C(=O)O)cc(N3C(=O)c4cc(*)c(Cl)cc4C3=O)c1)C2=O` (repeat unit), the glass transition temperature was 368.00 °C.
`*c1cccc(C(F)(F)C(F)(F)C(F)(F)C(F)(F)C(F)(F)c2cccc(N3C(=O)c4ccc(Oc5ccc6c(c5)C(=O)N(*)C6=O)cc4C3=O)c2)c1` (repeat unit) gave a glass transition temperature of 157.00 °C.
In the case of `*c1cccc(P(=O)(c2ccccc2)c2cccc(-n3c(=O)c4c(-c5cc(C(F)(F)F)cc(C(F)(F)F)c5)c5c(=O)n(*)c(=O)c5c(-c5cc(C(F)(F)F)cc(C(F)(F)F)c5)c4c3=O)c2)c1` (repeat unit), the glass transition temperature is reported as 324.00 °C.
For `*Oc1ccc(C(C)(C)c2ccc(OC3(F)C(*)(F)C(F)(F)C3(F)F)cc2)cc1` (repeat unit), the glass transition temperature was 98.00 °C.
In the case of `*c1cccc(Oc2cccc(-n3c(=O)c4cc5c(=O)n(*)c(=O)c5cc4c3=O)c2)c1` (repeat unit), the glass transition temperature is reported as 285.2 ± 2.5 °C.
Work on `*Nc1ccc(NC(=O)c2ccc(NC(=O)CCCCCCCCC(=O)Nc3ccc(C(*)=O)cc3)cc2)cc1C(=O)OCCCCCCCCCCCCCCCCCC` (repeat unit) yielded a glass transition temperature of 280.00 °C.
For `*Oc1cc(OC(=O)c2ccc(OCCCCC)cc2)c(OC(=O)CCCC(*)=O)cc1OC(=O)c1ccc(OCCCCC)cc1` (repeat unit), the glass transition temperature was 44.00 °C.
`*OC(C)C#CC#CC(C)OC(=O)c1ccc(C(*)=O)cc1` (repeat unit) gave a glass transition temperature of 133.00 °C.
In the case of `*Oc1ccc(C(C)(C)c2ccc(OC(=O)OCCN(CCOC(*)=O)c3ccc(OC)cc3)cc2)cc1` (repeat unit), the glass transition temperature is reported as 60.00 °C.
In the case of `*Oc1ccc(NC(=O)NC2CC(C)(C)CC(C)(CNC(=O)Nc3ccc(*)c(-c4ccc(Oc5ccccc5)cc4)c3)C2)cc1-c1ccc(Oc2ccccc2)cc1` (repeat unit), the glass transition temperature is reported as 281.00 °C.
For `*C(=O)c1ccc2c(c1)C(=O)N(c1cccc(C(=O)c3ccc(Cc4ccc(C(=O)c5cccc(N6C(=O)c7ccc(*)cc7C6=O)c5)cc4)cc3)c1)C2=O` (repeat unit), the glass transition temperature was 260.50 °C.
For `*Oc1ccc(C(C)(C)c2ccc(Oc3c(F)c(F)c(COC(c4cccc(C(OCc5c(F)c(F)c(*)c(F)c5F)(C(F)(F)F)C(F)(F)F)c4)(C(F)(F)F)C(F)(F)F)c(F)c3F)cc2)cc1` (repeat unit), the glass transition temperature was 98.00 °C.
Compound `*Nc1ccc(C(C)(C)c2ccc(NC(=O)c3cc(C(*)=O)cc(N4C(=O)C5CC=CCC5C4=O)c3)cc2)cc1` (repeat unit) has a glass transition temperature of 308.00 °C.
In the case of `*c1ccc(Oc2ccc(N3C(=O)C(C)C(SCCOCCSC4C(=O)N(c5ccc(Oc6ccc(N7C(=O)CC(C)(SCCOCCSC8(C)CC(=O)N(*)C8=O)C7=O)cc6)cc5)C(=O)C4C)C3=O)cc2)cc1` (repeat unit), the glass transition temperature is reported as 145.00 °C.
With `*C(=O)c1ccc2c(c1)C(=O)N(c1ccc(Cc3ccc(Cc4ccc(Cc5ccc(N6C(=O)c7ccc(*)cc7C6=O)cc5)cc4)cc3)cc1)C2=O` (repeat unit) the glass transition temperature was 302.00 °C.
With `*CC(O)CN(CC(O)COc1ccc(C(C)(C)c2ccc(O*)cc2)cc1)c1ccc(/C=C/c2ccc([N+](=O)[O-])cc2)cc1` (repeat unit) the glass transition temperature was 320.00 °C.
With `*Oc1ccc(CNC(=O)c2cccc(C(=O)NCc3ccc(OC4COC5C(*)COC45)cc3)c2)cc1` (repeat unit) the glass transition temperature was 83.00 °C.
In the case of `*CCN(CCOC(=O)CCC#CC#CCCC(=O)O*)c1ccc(/N=N/c2c(C)cc(/N=N/c3ccc(C#N)cc3)cc2C)cc1` (repeat unit), the glass transition temperature is reported as 63.00 °C.
`*CCCCCCCCCOC(=O)c1ccc2cc(C(=O)O*)ccc2c1` (repeat unit) gave a glass transition temperature of 50.00 °C.
`*Oc1ccc(-c2ccc(Oc3ccc(C(=O)c4c(C(=O)c5ccc(*)cc5)c(-c5ccc(F)cc5)c(-c5ccc(F)cc5)c(-c5ccc(F)cc5)c4-c4ccc(F)cc4)cc3)cc2)cc1` (repeat unit) showed a glass transition temperature of 275.00 °C.
Work on `*C[Si](*)(CCCC)CCCC` (repeat unit) yielded a glass transition temperature of -30.00 °C.
`*CC(*)(C)C(=O)OCCCCCCCCCCOc1ccc(OC(=O)c2ccc(OC)c(Br)c2)cc1` (repeat unit) gave a glass transition temperature of 29.00 °C.
Work on `*CC(COC(C)C)O*` (repeat unit) yielded a glass transition temperature of -67.00 °C.
`*c1ccc(Oc2ccc(S(=O)(=O)c3ccc(Oc4ccc(-c5c6c(c(*)c7ccccc57)C(=O)N(c5ccc(F)cc5)C6=O)cc4)cc3)cc2)cc1` (repeat unit) showed a glass transition temperature of 300.00 °C.
`*C(=O)c1cc2c(cc1Cl)C(=O)N(c1cc(C(=O)OC)cc(N3C(=O)c4cc(*)c(Cl)cc4C3=O)c1)C2=O` (repeat unit) showed a glass transition temperature of 321.00 °C.
With `*/C=C/c1ccc(*)cc1` (repeat unit) [Poly(p-phenylenevinylene)s] the glass transition temperature was 137.42 ± 150 °C.
Work on `*CC(COc1ccc(C(C)(C)c2ccc(O*)cc2)cc1)OC(=O)/C=C/c1ccccc1` (repeat unit) yielded a glass transition temperature of 100.60 °C.
In the case of `*CC(*)C(=O)c1ccc(Cl)cc1` (repeat unit), the glass transition temperature is reported as 63.00 °C.
With `*CCCCCCCCCCNC(=O)c1ccc(C(=O)N*)c(Sc2ccccc2)c1` (repeat unit) the glass transition temperature was 100.00 °C.
For `*c1cccc(P(=O)(c2ccc(C(F)(F)F)cc2)c2cccc(-n3c(=O)c4cc5c(=O)n(*)c(=O)c5c(-c5ccc(C(F)(F)F)cc5)c4c3=O)c2)c1` (repeat unit), the glass transition temperature was 303.00 °C.
`*CCOC(=O)c1cc(C(=O)O*)cc(C(C)(C)C)c1` (repeat unit) gave a glass transition temperature of 94.00 °C.
`*c1ccc(Oc2ccc(-c3ccc(-c4ccc(Oc5ccc(-c6c7c(c(*)c8ccccc68)C(=O)N(c6ccccc6)C7=O)cc5)c(C(F)(F)F)c4)s3)cc2C(F)(F)F)cc1` (repeat unit) gave a glass transition temperature of 287.00 °C.
For `*CC(*)c1ccc(C(=O)c2ccc(OC)cc2)cc1` (repeat unit), the glass transition temperature was 103.00 °C.
